According to patent US6642271B2, “Potentiating compounds” (Ardenia Investments, Ltd., priority 2001, dated 2003):
Values joined by “and” are separate entries in the source; they are usually repeats but may differ in a detail not shown here. Identical values can stand only once.

Key:
[1] = system: human breast adenocarcinoma MDA-MB-231 cell line; assay: Cytotoxicity: cell growth inhibition in cultures, viable cells counted by trypan blue exclusion; assay type: cell-based; conditions: for inhibition at 0.04 µM / inhibition at 1 µM / inhibition at 0.1 µM / inhibition at 0.01 µM / inhibition at 0.001 µM / inhibition at 0.0001 µM / inhibition at 10 pM: Homo sapiens; for Cell growth inhibition % Formulation: compound/paclitaxel formulations in saline; for Cell growth inhibition % OF W/SAB / Cell growth inhibition % OF SAB/W: dried compound/paclitaxel mixed-micellar system (OF); for Cell growth inhibition % OF W/SAB: freeze-dried as water solution, reconstituted with 0.05 M sodium acetate buffer; for Cell growth inhibition % OF SAB/W: freeze-dried in 0.05 M sodium acetate buffer, reconstituted with water
Description: The cell line was propagated by cultivation in Nunclon 25 cm^2 flasks (Nunc A/S, Denmark) in Minimum Essential Medium Eagle (MEM), containing antibiotics and supplemented with 10% (v/v) fetal bovine serum (FBS) (Sigma, St. Louis, Mo., USA). The cultures were maintained in growth medium at 37° C. in a humidified atmosphere, 95% air and 5% CO2.
A suspension of tumour cells (60×10^3 cells/mL) was prepared in MEM with 5% FBS and antibiotics. Cell suspension (200 μL) was seeded in wells of Nunclon 96-microwell plates (Nunc A/S, Denmark) at a density of 12×10^3 cell/well. The solutions of the drugs to be tested were added to the cultures on day 0 or day 1 in volumes of 2 μL. In all cases the cells were incubated for 3 days.
At the end of the incubation period, adherent cells were detached by trypsinization and the number of viable cells was counted using trypan blue dye exclusion test and a hemocytometer.
All experiments were performed at least twice and the cells counts were done in triplicate for each drug concentration. Each control and test series consisted of 6-8 cultures. The results are expressed as mean cell number ±SD and the differences between control and test series were evaluated by means of Student's t-test. The cytotoxicity of each tested drug was evaluated by the extent of cell growth inhibition. The Cell growth inhibition was evaluated as follows:
Cell growth inhibition, %=- - - ×100

[2] = Solubility of compounds and formulations; assay type: physicochemical; conditions: for solubility in solvents: sodium salts
Description: The obtained solution can be stored for at least three months at low temperatures, without noticeable change in the properties of compound (I-VI). Moreover, the formulation retains its cytotoxic effects during prolonged storage. Before use, the solution is evaporated in vacuo to yield a waxy solid which is dissolved in saline or other commonly used vehicle for intravenous infusion to a patient. […] An ethanol solution is prepared of one of N-(all-trans-Retinoyl)-L-cysteic acid (I), N-(13-cis-Retinoyl)-L-cysteic acid (11), N-(all-trans-Retinoyl)-L-homocysteic acid (III), N-(13-cis-Retinoyl)-L-homocysteic acid (IV), N-(all-trans-Retinoyl)-L-cysteinesulfinic acid (V), or N-(13-cis-Retinoyl)-L-cysteinesulfinic acid (VI). The obtained solution is evaporated in vacuo to give waxy solid, whereupon Taxol® is added, dissolving the waxy solid. […]

[3] = MDA-MB-231, sodium salt in saline, final 4 × 10^−8 mol/L, day 1, three days
[4] = MDA-MB-231, sodium salt in saline, final 10^−6 mol/L (top of range 10^−11 M to 10^−6 M), day 1, three days
[5] = MDA-MB-231, sodium salt in saline, final 10^−7 mol/L, day 1, three days
[6] = MDA-MB-231, sodium salt in saline, final 10^−8 mol/L, day 1, three days
[7] = MDA-MB-231, sodium salt in saline, final 10^−9 mol/L, day 1, three days
[8] = MDA-MB-231, sodium salt in saline, final 10^−10 mol/L, day 1, three days
[9] = MDA-MB-231, sodium salt of the compound dissolved in saline (1 mg/ml), final concentration 10^−11 mol/L, day 1, three days
[10] = sodium salt in saline, final 4 × 10^−8 mol/L, day 1, three days
[11] = sodium salt in saline, final 10^−6 mol/L (top of range 10^−11 M to 10^−6 M), day 1, three days
[12] = sodium salt in saline, final 10^−6 mol/L, day 1, three days
[13] = sodium salt in saline, final 10^−7 mol/L, day 1, three days
[14] = sodium salt in saline, final 10^−8 mol/L, day 1, three days
[15] = sodium salt in saline, final 10^−9 mol/L, day 1, three days
[16] = sodium salt in saline, final 10^−10 mol/L, day 1, three days
[17] = sodium salt of the compound dissolved in saline (1 mg/ml), final concentration 10^−11 mol/L, day 1, three days
[18] = initial saline solution 0.005 mg/mL, final 40 nM in cultures, added day 1, three days of cultivation
[19] = initial saline solution 0.05 mg/mL, final 40 nM, day 1, three days
[20] = initial saline solution 0.5 mg/mL, final 40 nM, day 1, three days
[21] = initial saline solution 1.0 mg/mL, final 40 nM, day 1, three days
[22] = initial saline solution 5.0 mg/mL, final 40 nM, day 1, three days

SMILES: CC1=C(/C=C/C(C)=C/C=C/C(C)=C\C(=O)N[C@@H](CCS(=O)(=O)O)C(=O)O)C(C)(C)CCC1 [Compound IV, N-(13-cis-Retinoyl)-L-homocysteic acid]
- inhibition at 0.04 µM [1, 3]: 29.6%
- inhibition at 1 µM [1, 4]: 31.9%
- inhibition at 0.1 µM [1, 5]: 31.1%
- inhibition at 0.01 µM [1, 6]: 24.9%
- inhibition at 0.001 µM [1, 7]: 17.3%
- inhibition at 0.0001 µM [1, 8]: 16.1%
- inhibition at 10 pM [1, 9]: 14.8%
- Cell growth inhibition % Formulation [1]: close to 60%
- Cell growth inhibition % OF W/SAB [1]: close to 62%
- Cell growth inhibition % OF SAB/W [1]: close to 63%
- number of living cells [1, 10]: 37.1 ± 2.56 × 10^3
- cell growth inhibition [1, 11]: ~35%
- number of living cells [1, 12]: 35.9 ± 2.29 × 10^3
- number of living cells [1, 13]: 36.3 ± 2.08 × 10^3
- number of living cells [1, 14]: 39.6 ± 2.74 × 10^3
- number of living cells [1, 15]: 43.6 ± 3.21 × 10^3
- number of living cells [1, 16]: 44.2 ± 3.35 × 10^3
- number of living cells [1, 17]: 44.9 ± 3.02 × 10^3
- solubility in the commercially available Taxol® preparation [2]: excellent solubility
- solubility in solvents [2]: also dissolved in methanol and some methanol containing mixtures

SMILES: CC1=C(/C=C/C(C)=C/C=C/C(C)=C/C(=O)N[C@@H](CS(=O)(=O)O)C(=O)O)C(C)(C)CCC1 [Compound I, N-(all-trans-Retinoyl)-L-cysteic acid]
- inhibition at 0.04 µM ([1]; MDA-MB-231, compound alone 4 × 10^−8 mol/L (40 nM), added day 0, three days): 39.6%
- inhibition at 0.04 µM ([1]; MDA-MB-231, dry substance, stock 1 mg/ml in saline, final 4 × 10^−8 mol/L, day 1, three days): 38.1%
- inhibition at 1 µM ([1]; MDA-MB-231, dry substance, stock 1 mg/ml in saline, final 10^−6 mol/L, day 1, three days): 42.1%
- inhibition at 0.1 µM ([1]; MDA-MB-231, dry substance, stock 1 mg/ml in saline, final 10^−7 mol/L, day 1, three days): 39.1%
- inhibition at 0.01 µM ([1]; MDA-MB-231, dry substance, stock 1 mg/ml in saline, final 10^−8 mol/L, day 1, three days): 29.9%
- inhibition at 0.001 µM ([1]; MDA-MB-231, dry substance, stock 1 mg/ml in saline, final 10^−9 mol/L, day 1, three days): 19.8%
- inhibition at 0.0001 µM ([1]; MDA-MB-231, dry substance, stock 1 mg/ml in saline, final 10^−10 mol/L, day 1, three days): 18.6%
- inhibition at 10 pM ([1]; MDA-MB-231, dry substance, stock 1 mg/ml in saline, final concentration 10^−11 mol/L, day 1, three days): 27.3%
- inhibition at 0.04 µM [1, 3]: 46.8%
- inhibition at 1 µM [1, 4]: 49.7%
- inhibition at 0.1 µM [1, 5]: 48%
- inhibition at 0.01 µM [1, 6]: 46.2%
- inhibition at 0.001 µM [1, 7]: 39.7%
- inhibition at 0.0001 µM [1, 8]: 36.5%
- inhibition at 10 pM [1, 9]: 28.6%
- cell growth inhibition ([1]; compound alone 4 × 10^−8 mol/L (40 nM), added day 0, three days, 0.04 µM): ~40%
- number of living cells ([1]; compound alone 4 × 10^−8 mol/L, added day 0, three days): 16.3 ± 2.50 × 10^3
- Cell growth inhibition % Formulation [1]: close to 75%
- Cell growth inhibition % OF W/SAB [1]: close to 71%
- Cell growth inhibition % OF SAB/W [1]: close to 72%
- number of living cells ([1]; dry substance, stock 1 mg/ml in saline, final 4 × 10^−8 mol/L, day 1, three days): 30.9 ± 1.62 × 10^3
- number of living cells ([1]; dry substance, stock 1 mg/ml in saline, final 10^−6 mol/L, day 1, three days): 28.9 ± 2.68 × 10^3
- number of living cells ([1]; dry substance, stock 1 mg/ml in saline, final 10^−7 mol/L, day 1, three days): 30.4 ± 1.83 × 10^3
- number of living cells ([1]; dry substance, stock 1 mg/ml in saline, final 10^−8 mol/L, day 1, three days): 35.0 ± 4.38 × 10^3
- number of living cells ([1]; dry substance, stock 1 mg/ml in saline, final 10^−9 mol/L, day 1, three days): 40.0 ± 2.31 × 10^3
- number of living cells ([1]; dry substance, stock 1 mg/ml in saline, final 10^−10 mol/L, day 1, three days): 40.6 ± 1.69 × 10^3
- number of living cells ([1]; dry substance, stock 1 mg/ml in saline, final concentration 10^−11 mol/L, day 1, three days): 36.3 ± 3.82 × 10^3
- cell growth inhibition [1, 18]: 33.3%
- number of living cells [1, 18]: 33.3 ± 2.55 × 10^3
- cell growth inhibition [1, 19]: 32.1%
- number of living cells [1, 19]: 33.9 ± 2.78 × 10^3
- cell growth inhibition [1, 20]: 31.5%
- number of living cells [1, 20]: 34.2 ± 5.09 × 10^3
- cell growth inhibition [1, 21]: 38.3%
- number of living cells [1, 21]: 30.8 ± 3.53 × 10^3
- cell growth inhibition [1, 22]: 27.7%
- number of living cells [1, 22]: 36.1 ± 4.10 × 10^3
- number of living cells [1, 10]: 31.2 ± 1.72 × 10^3
- cell growth inhibition [1, 11]: ~50%
- number of living cells [1, 12]: 29.5 ± 1.36 × 10^3
- number of living cells [1, 13]: 30.5 ± 0.89 × 10^3
- number of living cells [1, 14]: 31.6 ± 1.69 × 10^3
- number of living cells [1, 15]: 35.4 ± 2.23 × 10^3
- number of living cells [1, 16]: 37.3 ± 2.84 × 10^3
- number of living cells [1, 17]: 41.9 ± 2.17 × 10^3
- solubility in the commercially available Taxol® preparation [2]: excellent solubility
- solubility in solvents [2]: soluble only in mixtures containing water

SMILES: CC(=O)O[C@H]1C(=O)[C@@]2(C)[C@H]([C@H](OC(=O)c3ccccc3)[C@]3(O)C[C@H](OC(=O)[C@H](O)[C@@H](NC(=O)c4ccccc4)c4ccccc4)C(C)=C1C3(C)C)[C@]1(OC(C)=O)CO[C@@H]1C[C@@H]2O [Paclitaxel, reference compound]
- number of living cells ([1]; 8 × 10^−9 mol/L of paclitaxel (formulation: plus 4 × 10^−8 mol/L of compound, molar ratio 1:5), added day 0, three days): 15.5 ± 1.63 × 10^3 and 26.3 ± 1.96 × 10^3
- cell growth inhibition ([1]; at concentrations close to the IC50 concentration): ~46%
- cell growth inhibition ([1]; drug alone, 10 nM paclitaxel, added day 1, three days of cultivation, positive control of molar-ratio experiments): 46.1% and 44.3%

SMILES: CC1=C(/C=C/C(C)=C/C=C/C(C)=C/C(=O)N[C@@H](CCS(=O)(=O)O)C(=O)O)C(C)(C)CCC1 [Compound III, N-(all-trans-Retinoyl)-L-homocysteic acid]
- inhibition at 0.04 µM [1, 3]: 32.8%
- inhibition at 1 µM [1, 4]: 36.1%
- inhibition at 0.1 µM [1, 5]: 34.4%
- inhibition at 0.01 µM [1, 6]: 25.8%
- inhibition at 0.001 µM [1, 7]: 19.7%
- inhibition at 0.0001 µM [1, 8]: 15.5%
- inhibition at 10 pM [1, 9]: 16.9%
- Cell growth inhibition % Formulation [1]: close to 60%
- Cell growth inhibition % OF W/SAB [1]: close to 62%
- Cell growth inhibition % OF SAB/W [1]: close to 63%
- number of living cells [1, 10]: 36.5 ± 2.08 × 10^3
- cell growth inhibition [1, 11]: ~35%
- number of living cells [1, 12]: 34.7 ± 1.52 × 10^3
- number of living cells [1, 13]: 35.6 ± 1.68 × 10^3
- number of living cells [1, 14]: 40.3 ± 3.36 × 10^3
- number of living cells [1, 15]: 43.6 ± 2.57 × 10^3
- number of living cells [1, 16]: 45.9 ± 2.84 × 10^3
- number of living cells [1, 17]: 45.1 ± 3.51 × 10^3
- solubility in the commercially available Taxol® preparation [2]: excellent solubility
- solubility in solvents [2]: also dissolved in methanol and some methanol containing mixtures
